In test [1] the test system is COS-7. Description: Growth inhibition of African green monkey COS7 cells by MTT assay. In kind it is functional, cell-based. As to conditions: Chlorocebus aethiops.
Test [2] concerns HeLa. Briefly: Growth inhibition of human HeLa cells by MTT assay. In kind it is functional, cell-based. A general note: Tetrazolium dyes change colour on reduction, which living cells bring about.
In test [3] the test system is Ehrlich. Description: Antitumor activity against mouse EAC cells implanted in Swiss albino mouse assessed as viable tumor cell count in ascitic fluid at 0.5 mg for 9 days (reference value: 83.2 10^6/100uL). In kind it is functional.
For test [4], the system named is Ehrlich. Briefly: Antitumor activity against mouse EAC cells implanted in Swiss albino mouse assessed as hemoglobin count in blood at 0.5 mg for 9 days (reference value: 8.15 g/dL). In kind it is functional.
Test [5] deals with Ehrlich. Description: Antitumor activity against mouse EAC cells implanted in Swiss albino mouse assessed as increase in mean life span at 0.5 mg for 9 days relative to control. In kind it is functional.
The test system of test [6] is Ehrlich. Description: Antitumor activity against mouse EAC cells implanted in Swiss albino mouse assessed as tumor volume in ascitic fluid at 0.5 mg for 9 days (reference value: 9.85 mL). In kind it is functional.
For test [7], the system named is Ehrlich. Description: Antitumor activity against mouse EAC cells implanted in Swiss albino mouse assessed as RBC count in blood at 0.5 mg for 9 days (reference value: 3.69 10^6/mm3). In kind it is functional.
Test [8] relates to Ehrlich. Description: Antitumor activity against mouse EAC cells implanted in Swiss albino mouse assessed as WBC count in blood at 0.5 mg for 9 days (reference value: 23.96 10^3/mm3). In kind it is functional.

The term IC50 denotes the point on the concentration scale where inhibition reaches its midpoint. In the case of `COc1ccc(/C=N/NC(=S)N/N=C2\C(=O)Nc3ccc(C)cc32)c(OC)c1`, the IC50 in test [1] and in test [2] was more than 50 µM throughout.

As a reminder, the ILS is how much longer treated animals lived than controls. On to `O=C1Nc2ccc(Br)cc2/C1=N/NC(=S)N/N=C/c1c(F)cccc1Cl`, for which the Activity came out at 57.5 ×10⁶ /100microL in test [3]; 9.96 g/dL in test [4]; 6.7 mL in test [6]; 4.09 ×10⁶ /mm3 in test [7]; 13.05 ×10³ /mm3 in test [8]. Further, in test [5], the ILS is recorded as 72.4%. Moreover, the values for the IC50 in test [1] and in test [2] were 2.56 µM and 1.61 µM, respectively.

For `COc1ccc(/C=N/NC(=S)N/N=C2\C(=O)Nc3ccc(Br)cc32)cc1O`, the Activity in test [3] amounted to 66.78 ×10⁶ /100microL; in test [4] it was 9.11 g/dL; in test [6], 7.8 mL; in test [7] it was 3.86 ×10⁶ /mm3; in test [8], 19.48 ×10³ /mm3. In test [5], the ILS is reported as 24.1%. The IC50 in test [1] amounted to 3.09 µM; in test [2], 2.22 µM.

`Cc1ccc2c(c1)/C(=N/NC(=S)N/N=C/c1ccc(Br)cc1)C(=O)N2`: the IC50 in test [1] and in test [2] was more than 50 µM throughout.

On to `Cc1ccc2c(c1)/C(=N/NC(=S)N/N=C/c1c(F)cccc1Cl)C(=O)N2`, for which the Activity turned out to be 51.52 ×10⁶ /100microL in test [3]; 10.09 g/dL in test [4]; 6.2 mL in test [6]; 4.19 ×10⁶ /mm3 in test [7]; 12.26 ×10³ /mm3 in test [8]. The ILS in test [5] came to 72.4%. The IC50 in test [1] worked out at 2.19 µM; in test [2], 1.51 µM.

For the molecule `COc1ccc(/C=N/NC(=S)N/N=C2\C(=O)Nc3ccc(Br)cc32)c(OC)c1`, the IC50 in test [1] and in test [2] was more than 50 µM throughout.

For the molecule `COc1ccc(/C=N/NC(=S)N/N=C2\C(=O)Nc3ccc(C)cc32)cc1O`, the Activity in test [3] worked out at 38.75 ×10⁶ /100microL; in test [4] it was 11.15 g/dL; in test [6], 3.26 mL; in test [7] it was 4.46 ×10⁶ /mm3; in test [8] it was 9.23 ×10³ /mm3. Besides, the ILS in test [5] came to 110.9%. In addition, the IC50 was determined as 3.19 µM in test [1] and 2.73 µM in test [2].

For the molecule `O=C1Nc2ccc(Br)cc2/C1=N/NC(=S)N/N=C/c1ccccc1Br`, the IC50 in test [1] and in test [2] was more than 50 µM throughout.

As for `O=C1Nc2ccc(Br)cc2/C1=N/NC(=S)N/N=C/c1ccc(-c2ccccc2)cc1`, the IC50 in test [1] was more than 50 µM; in test [2] it was 3.25 µM.

`Cc1ccc2c(c1)/C(=N/NC(=S)N/N=C/c1cc3ccccc3c3ccccc13)C(=O)N2`: the half-inhibitory concentration (IC50) in test [1] and in test [2] was more than 50 µM in each case.

For `O=C1Nc2ccc(Br)cc2/C1=N/NC(=S)N/N=C/c1ccc(Br)cc1`, the IC50 in test [1] came to 5.18 µM; in test [2], 4.68 µM.

With `Cc1ccc(O)c(/C=N/NC(=S)N/N=C2\C(=O)Nc3ccc(Br)cc32)c1`, the IC50 in test [1] and in test [2] was more than 50 µM in each case.

On to `Cc1ccc2c(c1)/C(=N/NC(=S)N/N=C/c1c(Cl)cccc1Cl)C(=O)N2`, for which the IC50 amounted to 3.87 µM in test [1] and 1.79 µM in test [2].

Turning to `Cc1ccc2c(c1)/C(=N/NC(=S)N/N=C/c1ccc3ccccc3c1)C(=O)N2`, the IC50 in test [1] and in test [2] was more than 50 µM in each case.

In the case of `O=C1Nc2ccc(Br)cc2/C1=N/NC(=S)N/N=C/c1ccc2ccccc2c1`, the IC50 in test [1] and in test [2] was more than 50 µM throughout.

With `Cc1ccc2c(c1)/C(=N/NC(=S)N/N=C/c1ccccn1)C(=O)N2`, the Activity in test [3] stood at 24.22 ×10⁶ /100microL; in test [4], 12.93 g/dL; in test [6] it was 2.52 mL; in test [7], 5.28 ×10⁶ /mm3; in test [8], 7.89 ×10³ /mm3. Besides, the ILS in test [5] was 189.6%. Further, the IC50 in test [1] was 2.12 µM; in test [2], 3.15 µM.

In the case of `O=C1Nc2ccc(Br)cc2/C1=N/NC(=S)N/N=C/c1c(Cl)cccc1Cl`, the IC50 came to 6.73 µM in test [1] and 3.53 µM in test [2].

`Cc1ccc2c(c1)/C(=N/NC(=S)N/N=C/c1ccccc1Br)C(=O)N2`: the 50% inhibitory concentration (IC50) in test [1] and in test [2] was more than 50 µM in each case.

Turning to `Cc1ccc(O)c(/C=N/NC(=S)N/N=C2\C(=O)Nc3ccc(C)cc32)c1`, the IC50 in test [1] and in test [2] was more than 50 µM in each case.

Take `O=C1Nc2ccc(Br)cc2/C1=N/NC(=S)N/N=C/c1cc2ccccc2c2ccccc12`: the IC50 in test [1] and in test [2] was more than 50 µM each time.

In the case of `Cc1ccc2c(c1)/C(=N/NC(=S)N/N=C/c1ccc(-c3ccccc3)cc1)C(=O)N2`, the IC50 in test [1] and in test [2] was more than 50 µM each time.

For the molecule `COc1cccc2c1C(=O)c1c(O)c3c(c(O)c1C2=O)C[C@@](O)(C(=O)CO)C[C@@H]3O[C@H]1C[C@H](N)[C@H](O)[C@H](C)O1` [DOXORUBICIN], the IC50 turned out to be 3.04 µM in test [1] and 2.05 µM in test [2].

For `O=c1[nH]cc(F)c(=O)[nH]1` [FLUOROURACIL], the Activity in test [3] is 20.17 ×10⁶ /100microL; in test [4] it was 12.96 g/dL; in test [6] it was 1.6 mL; in test [7], 5.21 ×10⁶ /mm3; in test [8] it was 8.86 ×10³ /mm3. Besides, in test [5], the ILS is on record as 237.9%.

The values above are taken from ChEMBL document CHEMBL3997807, “Isatin-β-thiocarbohydrazones: Microwave-assisted synthesis, antitumor activity and structure-activity relationship” (Eur J Med Chem, 2017).
